This is an account of results in PubChem BioAssay (NCI).

Values joined by “and” are separate entries in the source; they are usually repeats but may differ in a detail not shown here. Equal entries are not always repeated.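 Results reflect a 48-hour exposure of cells in 96-well plates to compound at five concentrations. GI50 is the concentration that inhibits growth by half. TGI: total growth inhibition.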

What all share (assay): NCI-60 cell line screen, 48 h
For assay [1], the system named is HCT-116 colon.
The subject of assay [2] is HT29 colon.
Assay [3] has as its system ACHN renal.
Assay [4] relates to KM12 colon.
The subject of assay [5] is M14 melanoma.
Assay [6] concerns MALME-3M melanoma.
The subject of assay [7] is RPMI-8226 leukemia.
Assay [8] has as its system T-47D breast.
Assay [9] relates to RXF 393 renal.
Assay [10] relates to SN12C renal.

In the case of `CCN(Cc1c(F)cccc1Cl)c1ccc(CO)c(Cl)c1`, the GI50 is under 0.0172 µM in assay [1]; 0.668 µM in assay [2]; 15.1 µM in [3]; 11.8 µM in assay [4]; 17.6 µM in assay [5]; 14.1 µM in assay [6]. Besides, the GI50 in assay [7] was 0.173 µM; in [8], under 0.0153 µM; in assay [9], 6.31 µM; in [10], 11.9 µM. For the same molecule, the TGI in assay [1] was determined as 12.1 µM; in [2], 16 µM; in assay [3] it was 29.4 µM; in assay [4] it was 25.8 µM; in [5], 35.9 µM; in assay [6], 28.6 µM. In addition, the TGI in [7] came out at 22 µM; in assay [8], 0.0496 µM; in [9] it was 27 µM; in assay [10] it was 25 µM.

Turning to `CNC(=O)c1cncc(/C=C/c2ccccc2Cl)c1`, the GI50 in [1], in assay [2], in assay [3], in [4], in assay [5] and in assay [6] was over 25 µM in each case. Also, the GI50 in assay [7] is over 25 µM; in assay [8], over 23.6 µM; in assay [9], over 25 µM; in assay [10], over 25 µM. Also, the TGI in assay [1], in [2], in assay [3], in [4], in assay [5] and in assay [6] was over 25 µM in each case. Moreover, the TGI in assay [7], in assay [8], in [9] and in assay [10] was over 25 µM each time.

For the molecule `C=C1CCC2C3(C)COC(c4ccccc4Cl)OC3CCC2(C)C1/C=C/C1=CCOC1=O` (stereo not given), the GI50 is 4.48 µM in assay [1]; 5.43 µM in [2]; 38.7 µM in assay [3]; 6.71 µM in assay [4]; 89.6 µM in assay [5]; 17.2 µM in [6]. The GI50 is 1.16 µM in assay [7], 3.39 µM in [8], over 100 µM in [9] and over 100 µM in [10]. The TGI in assay [1], in assay [2], in assay [3], in [4], in assay [5] and in assay [6] was over 100 µM throughout. Also, the TGI in [7] was 9.97 µM; in assay [8], over 100 µM; in [9], over 100 µM; in assay [10] it was over 100 µM.

`COc1cc2nccc(Oc3ccc(NC(=O)c4cn(C(C)C)c(=O)n(-c5ccc(F)cc5)c4=O)cc3F)c2cc1OC`: the GI50 in assay [1] was 5.4 µM; in assay [2] it was 6.25 µM; in assay [3] it was 2.69 µM; in assay [4], 0.0453 µM; in [5] it was 63.3 µM; in assay [6], 2.39 µM. In addition, the GI50 was over 100 µM in assay [7], 3.23 µM in [8], over 21.1 µM in assay [9] and 2.81 µM in [10]. The TGI in assay [1] was over 100 µM; in [2], over 100 µM; in [3], over 26.3 µM; in assay [4], over 100 µM; in [5], over 100 µM; in assay [6], 11.8 µM. Also, the TGI is over 100 µM in [7], 34.4 µM in [8], over 100 µM in [9] and over 100 µM in assay [10].

As to `N#Cc1cc(S(=O)(=O)Nc2nc3ccccc3o2)c(SCc2ccccc2)cc1Cl`, the GI50 in assay [1] was 17.8 µM; in assay [2] it was 29.1 µM; in assay [3], 32.6 µM; in [4], 20.3 µM; in [5], 25.4 µM; in assay [6], 34.5 µM. Also, the GI50 in assay [7] is 30.9 µM; in [8] it was 23.7 µM; in assay [9], 23.9 µM; in assay [10], 24.7 µM. In addition, the TGI is 38.6 µM in assay [1]; 83.6 µM in [2]; over 100 µM in assay [3]; 40.7 µM in assay [4]; 52.7 µM in assay [5]; 69.9 µM in assay [6]. The TGI in assay [7] is over 100 µM; in assay [8], 80.9 µM; in assay [9] it was 53.1 µM; in [10] it was 57.9 µM.

`O=P(O)(O)OCC1OC(n2cnc3c(NCc4ccccc4)ncnc32)C(O)C1O` (stereo not given): the GI50 in assay [1] is 1.66 µM; in assay [2] it was 2.27 µM; in assay [3] it was 1.4 µM; in [4], 12.7 µM; in [5], 2.68 µM; in assay [6] it was 6.64 µM. The GI50 in assay [7] is 3.97 µM; in assay [8], 1.37 µM; in [9] it was 1.46 µM; in assay [10] it was 0.509 µM. Besides, the TGI in assay [1] is over 32.1 µM; in assay [2], over 36 µM; in assay [3], over 69.1 µM; in [4], over 100 µM; in assay [5], over 100 µM; in assay [6] it was over 100 µM. Further, the TGI in assay [7] is over 52.1 µM; in assay [8], 10.3 µM; in [9] it was 13.8 µM; in assay [10] it was over 100 µM.

`C/C=C(\C)C(=O)OC1/C=C(\C)CC/C=C(\C)CC2OC(=O)C(C)(OC(C)=O)C12` (stereo not given): the TGI in assay [1], in assay [2], in assay [3], in assay [4], in assay [5] and in assay [6] was over 100 µM each time. For the same molecule, the TGI in assay [7], in assay [8], in assay [9] and in assay [10] was over 100 µM throughout.

As for `CC/C(=C/c1ccc(OC)cc1OC)[N+](=O)[O-]`, the GI50 in assay [1] was 1.65 µM; in [2], 3.37 µM; in assay [3] it was 2.14 µM; in assay [4], 2.41 µM; in [5], 2.44 µM; in assay [6], 1.91 µM. Moreover, the GI50 was 2.31 µM in [7], 1.72 µM in assay [8], 1.88 µM in assay [9] and 2.31 µM in assay [10]. The TGI in assay [1] was found to be 3.23 µM; in [2] it was 11.1 µM; in [3] it was 4.63 µM; in assay [4], 6.75 µM; in assay [5] it was 8.53 µM; in assay [6], 4.93 µM. Also, the TGI in [7] came out at 7.19 µM; in assay [8], 5.06 µM; in [9] it was 3.57 µM; in assay [10], 6.61 µM.

Turning to `C=C1C(=O)O[C@H]2C[C@@H]1C(=O)CC(C)CCCC(C)=CCC[C@@]2(C)O` (stereo not given in full), the TGI in assay [1], in assay [2], in assay [3], in [4], in [5] and in [6] was over 25 µM each time. For the same molecule, the TGI in [7], in assay [8], in assay [9] and in assay [10] was over 25 µM each time.

Turning to `O=c1[nH]c(=O)n(C2CC(O)C(CO)O2)cc1C(F)(F)F` (stereo not given), the GI50 in assay [1] was 1.7 µM; in [2], 33.8 µM; in assay [3] it was 1.3 µM; in assay [4] it was over 100 µM; in assay [5], 1.01 µM; in [6], over 49.9 µM. Also, the GI50 in [7] is over 20.3 µM; in assay [8], 3.34 µM; in assay [9] it was 9.38 µM; in assay [10], 3.8 µM. The TGI is over 100 µM in assay [1]; over 100 µM in assay [2]; over 100 µM in assay [3]; over 100 µM in assay [4]; over 34.5 µM in [5]; over 100 µM in assay [6]. The TGI in [7], in assay [8], in assay [9] and in assay [10] was over 100 µM each time.

Regarding `C[C@]12C[C@H](O)[C@H]3[C@@H](CCC4=CC(=O)CC[C@@]43C)[C@@H]1CC[C@@H]2c1csc(-c2ccccc2)n1`, the TGI in assay [1] was over 100 µM; in [2], over 100 µM; in [3], over 100 µM; in [4], over 100 µM; in assay [5] it was over 100 µM; in assay [6], 97.3 µM. In addition, the TGI in [7], in assay [8], in assay [9] and in [10] was over 100 µM throughout.

With `N#CC1=C(N)NC(=O)NC12Nc1ccccc1N2`, the GI50 in assay [1], in assay [2], in [3], in [4], in assay [5] and in assay [6] was over 100 µM in each case. Further, the GI50 in assay [7], in assay [8], in assay [9] and in assay [10] was over 100 µM each time. For the same molecule, the TGI in assay [1], in [2], in [3], in [4], in assay [5] and in [6] was over 100 µM throughout. For the same molecule, the TGI in [7], in assay [8], in assay [9] and in assay [10] was over 100 µM each time.

In the case of `COc1cc2c3c(n(CCCNCCCN)c(=O)c2cc1OC)-c1cc2c(cc1C3=O)OCO2`, the GI50 in [1] is 1.34 µM; in assay [2], 1.7 µM; in assay [3], 3.14 µM; in assay [4], 3.51 µM; in assay [5], 4.65 µM; in [6] it was 2.21 µM. Moreover, the GI50 is 2.44 µM in assay [7], 2.8 µM in [8], 3.91 µM in assay [9] and 2.34 µM in [10]. In addition, the TGI in [1] was determined as 5.32 µM; in assay [2], 13.6 µM; in [3], 13.7 µM; in [4], 16.9 µM; in [5], 16.7 µM; in assay [6] it was 8.66 µM. Besides, the TGI in [7] was 11.8 µM; in assay [8], 14.7 µM; in [9], 16.8 µM; in assay [10] it was 13.3 µM.

Take `CC(C)(C)OC(=O)Nc1ccc2c(c1)C(NC(=O)Nc1cccc(C#N)c1)CC(C)(C)O2` (stereo not given): the GI50 is 1.24 µM in assay [1]; 6.71 µM in assay [2]; 3.99 µM in assay [3]; 3.39 µM in assay [4]; 3.73 µM in assay [5]; 3.69 µM in assay [6]. Moreover, the GI50 was 2.63 µM in assay [7], 2.52 µM in assay [8], 5.89 µM in [9] and 4.57 µM in [10]. The TGI is over 44.6 µM in assay [1]; over 100 µM in assay [2]; over 100 µM in assay [3]; over 100 µM in assay [4]; 40.5 µM in assay [5]; over 68 µM in [6]. Moreover, the TGI in assay [7] was over 81.9 µM; in assay [8], 33 µM; in assay [9] it was 70.2 µM; in [10] it was over 100 µM.

On to `Nc1ccc(/C=C/c2ccc3cccnc3c2)cc1`, for which the TGI in [1], in [2], in [3], in assay [4], in assay [5] and in assay [6] was over 100 µM each time. For the same molecule, the TGI in assay [7], in assay [8], in [9] and in assay [10] was over 100 µM in each case.

For the molecule `CC1=NOC(=O)/C1=C/c1ccc2c(c1)OCO2`, the TGI in assay [1] is over 100 µM; in [2] it was 57.3 µM; in assay [3] it was 38.2 µM; in [4], 36.6 µM; in assay [5], over 100 µM; in assay [6] it was over 100 µM. Moreover, the TGI in assay [7] is 55.2 µM; in assay [8] it was over 100 µM; in [9], 30.7 µM; in [10], 59.4 µM.

For `CCC1=C(CC2NCCc3ccccc32)CC2c3cc(OC)c(OC)cc3CCN2C1` (stereo not given), the GI50 in assay [1] was 2.86 µM; in assay [2] it was 3.31 µM; in assay [3] it was 3.96 µM; in assay [4] it was 3.32 µM; in assay [5] it was 4.53 µM; in assay [6] it was 3.02 µM. Also, the GI50 in assay [7] was 4.17 µM; in assay [8] it was 3.9 µM; in assay [9], 2.67 µM; in assay [10], 4.92 µM. For the same molecule, the TGI in assay [1] is 11.6 µM and 2.94 µM; in assay [2] it was 11.8 µM and 4.53 µM; in assay [3], 37.6 µM and 3.9 µM; in assay [4] it was 12.2 µM and 4.81 µM; in assay [5], 16 µM and 3.49 µM; in assay [6], 9.64 µM and 2.75 µM. In addition, the TGI was 15.9 µM and 3.12 µM in assay [7]; 16.8 µM and 5.85 µM in assay [8]; 13.5 µM and 5.3 µM in assay [9]; 35.6 µM and 7.34 µM in assay [10].
